{
  "source": "patent US7304057B2",
  "about": "“Substituted 6-membered N-heterocyclic compounds and method for their use as neurological regulator” (Institute of Pharmacology and Toxicology Accademy of …, priority 2001, dated 2007)",
  "key": {"[1]": {"tested_on": "mice sympathetic nerve endings damaged by 6-hydroxy-dopamine (6-OHDA)", "test": "adult mice sympathetic nerve endings damaged by 6-OHDA, residual noradrenaline in submaxillary glands", "assay_type": "in vivo", "details": "5 mg/kg sc, 6-OHDA 8 mg/kg ip, Kunming female mice; FIG. 3, **P<0.01 vs model control group", "protocol": "The neurotrophic activity of the compounds of the present invention can also be determined in several animal pharmacological models in vivo, such as the model of adult mice sympathetic nerve endings damaged by 6-hydroxy-dopamine (6-OHDA).\nKunming species female mice (♀) having a body weight of 18-22 g are randomly divided into the following groups: normal control group, model control group, FK506 (2 mg/kg) group, and the group of compound of the present invention (5 mg/kg) (10 mice per group). The mice are administrated with 6-OHDA (8 mg/kg) by intraperitoneal injection (ip) before 4 hours and after 4 continuous days of subcutaneous injection (sc) of the compound, while the control groups are administrated with the equivalent quantity of carrier by subcutaneous injection. After two weeks of the last administration, the mice are killed by luxation, and the two submaxillary glands of each of the mice are rapidly excised and weighed, placed in a glass grinder, then is homogenated with a homogenating liquid containing internal-standard, and centrifuged at 2000 g for 30 minutes. 20 μL of the obtained supernatant is directly injected in an HPLC-electrochemical detector to measure the content of noradrenaline (NE) in the submaxillary glands of the mice."}, "[2]": {"tested_on": "chick embryos dorsal root ganglia", "test": "chick embryo dorsal root ganglion cultures free of serum, neurite process scoring", "assay_type": "cell-based", "details": "48 h; for Average scoring: score 0-3 of neurite processes, average of 20 ganglia, NGF-only control 1.0", "protocol": "The neurotrophic activity of compounds of the present invention can be determined through several biological models in vitro, e.g. the model of chick embryos dorsal root ganglion cultures free of serum in vitro.\nIn a sterile environment, dorsal root ganglia were dissected from chick embryos of 8 days gestation and inoculated in rat rail collagen coated culture bottles (5 to 6 dorsal root ganglia per bottle, and two bottles per dosage). After 1 hour of attachment in a 37° C., 5% CO2 incubator, NGF (0.30 ng/ml) containing culture medium free of serum (DMEM) and the compound of example 4 of the present invention were added. The control groups were treated only with the same amount of NGF and culture medium. […] The representative micrographic pictures showing that compound of example 4 promotes the growth of chick embryos dorsal root ganglia processes were give in FIG. 1. The results of illustrative compound of example 4 at different concentrations promoting the growth of chick embryos dorsal root ganglia processes were outlined in table 1, wherein the scoring is the average scoring of 20 ganglia."}},
  "data": [
    {"compound": "CCOC(=O)C(CC(C)C)NC(=O)[C@@H]1CSCCN1S(=O)(=O)c1ccc(C)cc1", "note": "(stereo partly drawn) [Example 4, 2-{[(3R)-4-(4-toluenesulfonyl)thiomorpholine-3-carbonyl]amino}-4-methyl-pentanoic acid ethyl ester]", "values": [
      {"measurement": "residual NE level in the submaxillary glands", "setting": "[1]", "value": "raise the residual NE level in the submaxillary glands of the mice"},
      {"measurement": "Average scoring", "setting": "[2]; 0.1 pM compound + NGF (0.3 ng/mL)", "value": 2.15},
      {"measurement": "Average scoring", "setting": "[2]; 1.0 pM compound + NGF (0.3 ng/mL)", "value": 2.16},
      {"measurement": "Average scoring", "setting": "[2]; 10 pM compound + NGF (0.30 ng/mL)", "value": 1.50},
      {"measurement": "growth of chick embryos dorsal root ganglia processes", "setting": "[2]; concentration of from 0.1 to 1.0 pmol/L, with NGF (0.30 ng/ml)", "value": "promote the growth of chick embryos dorsal root ganglia processes"}
    ]}
  ]
}
